Data reported in US9850283B2, “Macrocyclic inhibitors of the PD-1/PD-L1 and CD80(B7-1)/PD-L1 protein/protein interactions” (BRISTOL-MYERS SQUIBB COMPANY, priority 2013, dated 2017).
Positions of bridges follow the written chain, without caps; N, C: chain ends. Non-standard residues stand in square brackets, D forms with d. Residues, ends and D or L forms follow the SMILES beside them. Pro(4,4-F2) = O=C(O)[C@@H]1CC(F)(F)CN1; Bta = N[C@@H](Cc1csc2ccccc12)C(=O)O; Hyp = O=C(O)[C@@H]1C[C@@H](O)CN1; NMeNle = CCCC[C@H](NC)C(=O)O; NMeA = CN[C@@H](C)C(=O)O; Dap = NC[C@H](N)C(=O)O; Sar = CNCC(=O)O

What was measured:
[1] = molecular target: T1, LK35.2-hPD-L1 cells / PE-labeled PD-1-Ig (Homo sapiens, UniProt Q9NZQ7); experiment: LK35.2-hPD-L1 cell binding high-content screening assay; format: cell-based; settings: cluster symbol; cell line of CBA not given (LK35.2-hPD-L1 or 293T-hPD-L1); read-out: CBA IC50 cluster
T1 construct: expressed in transfected cells; host or cells: LK35.2 mouse B cell line
Method in brief: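 Using overnight-cultured LK35.2-hPD-L1 mouse B cells, compound was co-incubated with phycoerythrin-tagged human PD-1-Ig (final 1 nM) at 37 °C for one hour. Unbound label was removed by triple dPBS washing prior to high-content image acquisition and analysis.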

Human PD-L1/PD-1 = molecular target: T2, Human PD-L1/PD-1 (Homo sapiens, UniProt Q9NZQ7); experiment: HTRF PD-1-Ig/PD-L1-His binding assay (human PD-L1); settings: cluster symbol; read-out: HTRF IC50 cluster
T2 construct: made in house; host or cells: HEK293T
Method in brief: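 Interaction of Fc-tagged soluble PD-1 with His-tagged soluble PD-L1 is monitored by time-resolved FRET. Donor is europium cryptate anti-Ig (1 nM final) and acceptor is APC anti-His (20 nM final). Assay buffer is dPBS with 0.1% BSA and 0.05% Tween-20.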

T1 sequence (Q9NZQ7 19-290): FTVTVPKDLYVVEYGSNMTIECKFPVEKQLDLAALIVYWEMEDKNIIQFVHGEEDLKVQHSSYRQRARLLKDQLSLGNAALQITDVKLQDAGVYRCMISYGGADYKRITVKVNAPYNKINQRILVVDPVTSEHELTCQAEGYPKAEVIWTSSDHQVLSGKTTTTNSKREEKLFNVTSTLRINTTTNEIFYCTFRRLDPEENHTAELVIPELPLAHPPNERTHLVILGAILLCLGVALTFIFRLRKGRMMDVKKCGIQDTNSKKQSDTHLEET
T2 sequence (Q9NZQ7 with tags, fused parts or gaps): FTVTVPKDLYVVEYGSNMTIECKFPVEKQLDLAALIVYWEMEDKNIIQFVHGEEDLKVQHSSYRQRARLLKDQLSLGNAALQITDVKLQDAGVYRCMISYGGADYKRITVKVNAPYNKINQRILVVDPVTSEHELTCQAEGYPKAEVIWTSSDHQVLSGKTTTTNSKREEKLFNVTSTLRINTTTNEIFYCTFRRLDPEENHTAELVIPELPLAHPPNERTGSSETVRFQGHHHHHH

Compound	IC50 [1] [nM]	IC50 (Human PD-L1/PD-1) [nM]
CC(C)C[C@@H]1NC(=O)[C@H](Cc2cnc[nH]2)NC(=O)[C@@H]2CCCN2C(=O)[C@H](CC(N)=O)NC(=O)[C@H](C)N(C)C(=O)[C@H](Cc2ccccc2)NC(=O)CSC[C@@H](C(=O)NCC(N)=O)NC(=O)[C@H](CCCNC(=N)N)NC(=O)[C@H](C)N(C)C(=O)[C@H](CCCc2ccccc2)NC(=O)[C@H](Cc2c[nH]c3ccccc23)NC(=O)[C@H](CO)NC(=O)[C@H](Cc2c[nH]c3ccccc23)NC(=O)CN(C)C1=O [Example 1108] (HELM PEPTIDE1{[O=C(C[*:3])[*:2]].F.[meA].N.P.H.L.[Sar].W.S.W.[O=C([C@H](CCCc1ccccc1)N[*:1])[*:2]].[meA].R.C.G.[am]}$PEPTIDE1,PEPTIDE1,1:R3-15:R3$$$V2.0)	> 74.3	> 30.5
CCCC[C@H]1C(=O)N(C)[C@@H](CCCC)C(=O)N[C@@H](CCCNC(=N)N)C(=O)N[C@H](C(=O)NCC(N)=O)CSCC(=O)N[C@@H](Cc2ccccc2)C(=O)N(C)[C@@H](C)C(=O)N[C@@H](CC(N)=O)C(=O)N2CCC[C@H]2C(=O)N[C@@H](Cc2cnc[nH]2)C(=O)N[C@@H](CC(C)C)C(=O)NC(C)(C)C(=O)N[C@@H](Cc2c[nH]c3ccccc23)C(=O)N[C@@H](CO)C(=O)N[C@@H](Cc2c[nH]c3ccccc23)C(=O)N1C [Example 1110]	> 74.3	> 30.5
CCCC[C@H]1C(=O)N(C)[C@@H](CCCC)C(=O)N[C@@H](CCCNC(=N)N)C(=O)N[C@H](C(=O)NCC(N)=O)CSCC(=O)N[C@@H](Cc2ccccc2)C(=O)N(C)[C@@H](C)C(=O)N[C@@H](CC(N)=O)C(=O)N2CC(F)(F)C[C@H]2C(=O)N[C@@H](Cc2cnc[nH]2)C(=O)N[C@@H](CC(C)C)C(=O)N(C)CC(=O)N[C@@H](Cc2c[nH]c3ccccc23)C(=O)N[C@@H](CO)C(=O)N[C@@H](Cc2c[nH]c3ccccc23)C(=O)N1C [Example 1112] ({CH2CO}-F[NMeA]N[Pro(4,4-F2)]HL[Sar]WSW[NMeNle][NMeNle]RCG-NH2; thioether N-14)	> 74.3	> 30.5

The next compounds have a lower IC50 [1] than those just listed; values first:

IC50 [1] [nM]	IC50 (Human PD-L1/PD-1) [nM]	Compound
0.158 to 4.71	0.385 to 6.74	CCCC[C@H]1C(=O)N(C)[C@@H](CCCC)C(=O)N[C@@H](CCCNC(=N)N)C(=O)N[C@H](C(=O)NCC(N)=O)CSCC(=O)N[C@@H](Cc2ccc(O)cc2)C(=O)N(C)[C@@H](C)C(=O)N[C@@H](CC(N)=O)C(=O)N2CCC[C@H]2C(=O)N[C@@H](CN)C(=O)N[C@@H](CC(C)C)C(=O)N2CCC[C@H]2C(=O)N[C@@H](Cc2c[nH]c3ccccc23)C(=O)N[C@@H](CO)C(=O)N[C@@H](Cc2c[nH]c3ccccc23)C(=O)N1C [Example 1113] ({CH2CO}-Y[NMeA]NP[Dap]LPWSW[NMeNle][NMeNle]RCG-NH2; thioether N-14)
0.158 to 4.71	6.76 to 30.3	CCCC[C@H]1C(=O)N(C)[C@@H](CCCC)C(=O)N[C@@H](CCCNC(=N)N)C(=O)N[C@H](C(=O)NCC(N)=O)CSCC(=O)N[C@@H](Cc2ccc(O)cc2)C(=O)N(C)[C@@H](C)C(=O)N[C@@H](CC(N)=O)C(=O)N2CCC[C@H]2C(=O)N[C@@H](CN)C(=O)N[C@@H](CC(C)C)C(=O)N2C[C@H](O)C[C@H]2C(=O)N[C@@H](Cc2c[nH]c3ccccc23)C(=O)N[C@@H](CO)C(=O)N[C@@H](Cc2c[nH]c3ccccc23)C(=O)N1C [Example 1114] ({CH2CO}-Y[NMeA]NP[Dap]L[Hyp]WSW[NMeNle][NMeNle]RCG-NH2; thioether N-14)
0.158 to 4.71	0.385 to 6.74	CCCC[C@H]1C(=O)N(C)[C@@H](CCCC)C(=O)N[C@@H](CCCNC(=N)N)C(=O)N[C@H](C(=O)NCC(N)=O)CSCC(=O)N[C@@H](Cc2ccc(O)cc2)C(=O)N(C)[C@@H](C)C(=O)N[C@@H](CC(N)=O)C(=O)N2CCC[C@H]2C(=O)N[C@@H](Cc2cnc[nH]2)C(=O)N[C@@H](CCC(=O)O)C(=O)N2CCC[C@H]2C(=O)N[C@@H](Cc2c[nH]c3ccccc23)C(=O)N[C@@H](CO)C(=O)N[C@@H](Cc2csc3ccccc23)C(=O)N1C [Example 1115] ({CH2CO}-Y[NMeA]NPHEPWS[Bta][NMeNle][NMeNle]RCG-NH2; thioether N-14)
